Data: US7452902B2, “Imidazopyridines as cyclin dependent kinase inhibitors” (Schering Corporation, priority 2002, dated 2008)

Target: T1, Cyclin E/CDK2 (Homo sapiens, UniProt P24941)
T1 construct: The expressed protein was approximately 34 kDa in size; made in house; host or cells: SF9 insect cells (baculovirus, pVL1393)
Experiment: Cyclin E/CDK2 in vitro kinase assay (SPA, 33P-ATP, biotinylated Histone H1 peptide)
Format: biochemical
Conditions: recombinant cyclin E/CDK2 from SF9 cells; 1 hour at room temperature; 8 point serial dilutions in duplicate

With `Nc1ncc(CNc2cc(-c3ccccc3Cl)cn3c(Br)cnc23)cn1` the IC50 was 76 nM.

`Clc1ccccc1-c1cc(NCc2cncnc2)c2ncc(Br)n2c1` showed an IC50 of 36 nM.

Work on `Brc1cnc2c(NCc3cncnc3)cc(-c3ccccc3)cn12` yielded an IC50 of 120 nM.
